Test results from the NIST ThermoML archive (doi:10.1016/j.fluid.2010.10.028).

Experiment: xn = mol fraction of the nth substance listed
Settings: Liquid, Vibrating tube method

CC(C)=O [acetone] + CCCCCCC
Settings	mass density [kg/m3]
337.69 K, 970 kPa, x1 = 0.801	700.39
337.69 K, 4850 kPa, x1 = 0.801	706.05
337.69 K, 9830 kPa, x1 = 0.7024	699.81
337.69 K, 9840 kPa, x1 = 0.492	680.33
337.69 K, 9870 kPa, x1 = 0.801	712.82
337.69 K, 14820 kPa, x1 = 0.7024	705.98
337.69 K, 14860 kPa, x1 = 0.801	719.01
337.69 K, 14870 kPa, x1 = 0.492	686.47
337.69 K, 19850 kPa, x1 = 0.801	724.74
337.69 K, 19870 kPa, x1 = 0.492	692.06
337.69 K, 24790 kPa, x1 = 0.7024	717.01
337.69 K, 24840 kPa, x1 = 0.492	697.27
337.69 K, 24840 kPa, x1 = 0.801	730.15
337.69 K, 29870 kPa, x1 = 0.492	702.18
337.69 K, 39870 kPa, x1 = 0.7024	731.35
337.69 K, 49840 kPa, x1 = 0.801	752.9
337.69 K, 64830 kPa, x1 = 0.801	764.19
337.69 K, 84730 kPa, x1 = 0.7024	763.81
337.69 K, 89820 kPa, x1 = 0.7024	766.84
337.69 K, 94820 kPa, x1 = 0.7024	769.76
337.69 K, 99820 kPa, x1 = 0.7024	772.57
337.69 K, 104830 kPa, x1 = 0.7024	775.31
337.69 K, 109800 kPa, x1 = 0.7024	777.96
337.69 K, 114820 kPa, x1 = 0.7024	780.54
337.69 K, 119800 kPa, x1 = 0.7024	783.06
337.69 K, 124820 kPa, x1 = 0.7024	785.53
337.69 K, 129820 kPa, x1 = 0.7024	787.95
337.7 K, 930 kPa, x1 = 0.7024	687.32
337.7 K, 960 kPa, x1 = 0.492	668.07
337.7 K, 4830 kPa, x1 = 0.7024	693.05
337.7 K, 4860 kPa, x1 = 0.611	683.33
337.7 K, 4870 kPa, x1 = 0.492	673.74
337.7 K, 9860 kPa, x1 = 0.611	690.06
337.7 K, 14890 kPa, x1 = 0.611	696.23
337.7 K, 19800 kPa, x1 = 0.7024	711.67
337.7 K, 19850 kPa, x1 = 0.611	701.87
337.7 K, 24870 kPa, x1 = 0.611	707.18
337.7 K, 29860 kPa, x1 = 0.611	712.16
337.7 K, 29890 kPa, x1 = 0.7024	722.13
337.7 K, 34850 kPa, x1 = 0.492	706.79
337.7 K, 34850 kPa, x1 = 0.611	716.83
337.7 K, 34850 kPa, x1 = 0.801	739.96
337.7 K, 34880 kPa, x1 = 0.7024	726.85
337.7 K, 39850 kPa, x1 = 0.492	711.17
337.7 K, 39860 kPa, x1 = 0.611	721.28
337.7 K, 39860 kPa, x1 = 0.801	744.5
337.7 K, 44850 kPa, x1 = 0.7024	735.58
337.7 K, 44850 kPa, x1 = 0.801	748.79
337.7 K, 44860 kPa, x1 = 0.611	725.53
337.7 K, 49840 kPa, x1 = 0.7024	739.64
337.7 K, 49850 kPa, x1 = 0.611	729.53
337.7 K, 49860 kPa, x1 = 0.492	719.29
337.7 K, 54830 kPa, x1 = 0.611	733.35
337.7 K, 54830 kPa, x1 = 0.7024	743.51
337.7 K, 54850 kPa, x1 = 0.492	723.05
337.7 K, 54850 kPa, x1 = 0.801	756.81
337.7 K, 59810 kPa, x1 = 0.7024	747.21
337.7 K, 59840 kPa, x1 = 0.801	760.56
337.7 K, 59850 kPa, x1 = 0.492	726.67
337.7 K, 59940 kPa, x1 = 0.611	737.16
337.7 K, 64800 kPa, x1 = 0.7024	750.79
337.7 K, 64840 kPa, x1 = 0.492	730.12
337.7 K, 64920 kPa, x1 = 0.611	740.68
337.7 K, 69780 kPa, x1 = 0.7024	754.21
337.7 K, 69840 kPa, x1 = 0.4	783.77
337.7 K, 69840 kPa, x1 = 0.8992	783.77
337.7 K, 69910 kPa, x1 = 0.611	744.03
337.7 K, 69930 kPa, x1 = 0.801	767.73
337.7 K, 74900 kPa, x1 = 0.611	747.3
337.7 K, 74910 kPa, x1 = 0.801	771.08
337.7 K, 79880 kPa, x1 = 0.611	750.44
337.7 K, 79880 kPa, x1 = 0.801	774.31
337.7 K, 84860 kPa, x1 = 0.611	753.48
337.7 K, 84870 kPa, x1 = 0.801	777.45
337.7 K, 89840 kPa, x1 = 0.611	756.41
337.7 K, 99810 kPa, x1 = 0.801	786.3
337.7 K, 109780 kPa, x1 = 0.801	791.8
337.7 K, 114850 kPa, x1 = 0.801	794.44
337.7 K, 119850 kPa, x1 = 0.611	772.4
337.7 K, 119860 kPa, x1 = 0.801	797.03
337.71 K, 950 kPa, x1 = 0.611	677.6
337.71 K, 1150 kPa, x1 = 0.4	716.73
337.71 K, 1150 kPa, x1 = 0.8992	716.73
337.71 K, 5000 kPa, x1 = 0.4	722.27
337.71 K, 5000 kPa, x1 = 0.8992	722.27
337.71 K, 9990 kPa, x1 = 0.4	728.91
337.71 K, 9990 kPa, x1 = 0.8992	728.91
337.71 K, 14960 kPa, x1 = 0.4	735.03
337.71 K, 14960 kPa, x1 = 0.8992	735.03
337.71 K, 19960 kPa, x1 = 0.4	740.75
337.71 K, 19960 kPa, x1 = 0.8992	740.75
337.71 K, 24950 kPa, x1 = 0.4	746.11
337.71 K, 24950 kPa, x1 = 0.8992	746.11
337.71 K, 29870 kPa, x1 = 0.801	735.19
337.71 K, 29930 kPa, x1 = 0.4	751.13
337.71 K, 29930 kPa, x1 = 0.8992	751.13
337.71 K, 34930 kPa, x1 = 0.4	755.89
337.71 K, 34930 kPa, x1 = 0.8992	755.89
337.71 K, 39920 kPa, x1 = 0.4	760.43
337.71 K, 39920 kPa, x1 = 0.8992	760.43
337.71 K, 44840 kPa, x1 = 0.492	715.3
337.71 K, 49900 kPa, x1 = 0.4	768.86
337.71 K, 49900 kPa, x1 = 0.8992	768.86
337.71 K, 54890 kPa, x1 = 0.4	772.81
337.71 K, 54890 kPa, x1 = 0.8992	772.81
337.71 K, 64860 kPa, x1 = 0.4	780.28
337.71 K, 64860 kPa, x1 = 0.8992	780.28
337.71 K, 69930 kPa, x1 = 0.492	733.51
337.71 K, 74770 kPa, x1 = 0.7024	757.51
337.71 K, 74840 kPa, x1 = 0.4	787.15
337.71 K, 74840 kPa, x1 = 0.8992	787.15
337.71 K, 74910 kPa, x1 = 0.492	736.73
337.71 K, 79750 kPa, x1 = 0.7024	760.71
337.71 K, 79820 kPa, x1 = 0.4	790.43
337.71 K, 79820 kPa, x1 = 0.8992	790.43
337.71 K, 79900 kPa, x1 = 0.492	739.82
337.71 K, 84890 kPa, x1 = 0.492	742.8
337.71 K, 89860 kPa, x1 = 0.801	780.47
337.71 K, 89870 kPa, x1 = 0.492	745.68
337.71 K, 94760 kPa, x1 = 0.4	799.66
337.71 K, 94760 kPa, x1 = 0.8992	799.66
337.71 K, 94820 kPa, x1 = 0.611	759.24
337.71 K, 94840 kPa, x1 = 0.492	748.47
337.71 K, 94840 kPa, x1 = 0.801	783.46
337.71 K, 99730 kPa, x1 = 0.4	802.55
337.71 K, 99730 kPa, x1 = 0.8992	802.55
337.71 K, 99820 kPa, x1 = 0.492	751.17
337.71 K, 104700 kPa, x1 = 0.4	805.37
337.71 K, 104700 kPa, x1 = 0.8992	805.37
337.71 K, 104790 kPa, x1 = 0.611	764.72
337.71 K, 104800 kPa, x1 = 0.492	753.81
337.71 K, 104800 kPa, x1 = 0.801	789.1
337.71 K, 109680 kPa, x1 = 0.4	808.11
337.71 K, 109680 kPa, x1 = 0.8992	808.11
337.71 K, 109770 kPa, x1 = 0.492	756.37
337.71 K, 109850 kPa, x1 = 0.611	767.36
337.71 K, 114650 kPa, x1 = 0.4	810.79
337.71 K, 114650 kPa, x1 = 0.8992	810.79
337.71 K, 114850 kPa, x1 = 0.492	758.9
337.71 K, 114860 kPa, x1 = 0.611	769.89
337.71 K, 119620 kPa, x1 = 0.4	813.4
337.71 K, 119620 kPa, x1 = 0.8992	813.4
337.71 K, 119840 kPa, x1 = 0.492	761.32
337.71 K, 124840 kPa, x1 = 0.492	763.7
337.71 K, 124850 kPa, x1 = 0.801	799.52
337.71 K, 129550 kPa, x1 = 0.4	818.42
337.71 K, 129550 kPa, x1 = 0.8992	818.42
337.71 K, 129840 kPa, x1 = 0.801	801.97
337.71 K, 129850 kPa, x1 = 0.492	766
337.72 K, 44910 kPa, x1 = 0.4	764.73
337.72 K, 44910 kPa, x1 = 0.8992	764.73
337.72 K, 59870 kPa, x1 = 0.4	776.58
337.72 K, 59870 kPa, x1 = 0.8992	776.58
337.72 K, 84800 kPa, x1 = 0.4	793.6
337.72 K, 84800 kPa, x1 = 0.8992	793.6
337.72 K, 89780 kPa, x1 = 0.4	796.66
337.72 K, 89780 kPa, x1 = 0.8992	796.66
337.72 K, 99810 kPa, x1 = 0.611	762.02
337.72 K, 124590 kPa, x1 = 0.4	815.94
337.72 K, 124590 kPa, x1 = 0.8992	815.94
337.72 K, 124870 kPa, x1 = 0.611	774.78
337.72 K, 129860 kPa, x1 = 0.611	777.16
347.61 K, 960 kPa, x1 = 0.7024	676.19
347.61 K, 4840 kPa, x1 = 0.7024	682.43
347.61 K, 9820 kPa, x1 = 0.7024	689.72
347.61 K, 14820 kPa, x1 = 0.7024	696.37
347.61 K, 19810 kPa, x1 = 0.7024	702.46
347.61 K, 24790 kPa, x1 = 0.7024	708.14
347.61 K, 29890 kPa, x1 = 0.7024	713.58
347.61 K, 34890 kPa, x1 = 0.7024	718.57
347.61 K, 39880 kPa, x1 = 0.7024	723.29
347.61 K, 44870 kPa, x1 = 0.7024	727.75
347.61 K, 49860 kPa, x1 = 0.7024	731.98
347.61 K, 54840 kPa, x1 = 0.7024	736.03
347.61 K, 59830 kPa, x1 = 0.7024	739.91
347.61 K, 64820 kPa, x1 = 0.7024	743.63
347.61 K, 69810 kPa, x1 = 0.7024	747.19
347.61 K, 74800 kPa, x1 = 0.7024	750.62
347.61 K, 79780 kPa, x1 = 0.7024	753.92
347.61 K, 84760 kPa, x1 = 0.7024	757.12
347.61 K, 89750 kPa, x1 = 0.7024	760.21
347.61 K, 94730 kPa, x1 = 0.7024	763.2
